Holding throughout (assay type): biochemical
For assay [1], the target named is T1, HDAC1 enzyme (Homo sapiens, UniProt Q13547).
T1 construct: transducing full length HDAC1 and HDAC6 genes into Sf-9 insect cells; GST; purchased SignalChem; host or cells: Sf-9 insect cells
Put plainly: HDAC1 enzyme inhibitory assay (HDAC-Glo I/II Assay kit). To be noted: wells without enzyme = 100% inhibition; for inhibition at 1 µM: read-out: HDAC1 inhibitory rate (%) (1 μM). In short, it runs like this: (§1)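 Enzyme source: full-length HDAC1/HDAC6, Sf-9, GST-purified. Assay buffer 24 mM Tris-HCl (pH 7.5), 1 mM MgCl2, 0.35 mM KCl, 135 mM NaCl. Compound–enzyme 60 min RT, then HDAC-Glo reagent 20 min RT, luminescence; inhibition relative to no-enzyme control.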

Assay [2] addresses T2, HDAC9 enzyme (Homo sapiens, UniProt Q9UKV0).
T2 construct: transducing full length HDAC9 gene into Sf-9 insect cells; made in house; host or cells: Sf-9 insect cells
Put plainly: HDAC9 enzyme inhibitory assay (HDAC-Glo class IIa). The conditions noted are these: wells without enzyme = 100% inhibition; for inhibition at 1 µM: read-out: HDAC9 inhibitory rate (%) (1 μM). In short, it runs like this:
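Luminescent HDAC-Glo class IIa readout after a 20 min room-temperature reaction; relative inhibition referenced to enzyme-free wells as 100%. Test compound first preincubated 60 min with Sf-9-expressed, Ni-NTA-purified full-length HDAC9 in pH 7.5 Tris buffer containing 135 mM NaCl, 0.6 mM glutathione and 0.01% Tween-20.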

Assay [3] addresses T3, HDAC6 enzyme (Homo sapiens, UniProt Q9UBN7).
T3 construct: transducing full length HDAC1 and HDAC6 genes into Sf-9 insect cells; GST; purchased SignalChem; host or cells: Sf-9 insect cells
T3 sequence (Q9UBN7 1-1215): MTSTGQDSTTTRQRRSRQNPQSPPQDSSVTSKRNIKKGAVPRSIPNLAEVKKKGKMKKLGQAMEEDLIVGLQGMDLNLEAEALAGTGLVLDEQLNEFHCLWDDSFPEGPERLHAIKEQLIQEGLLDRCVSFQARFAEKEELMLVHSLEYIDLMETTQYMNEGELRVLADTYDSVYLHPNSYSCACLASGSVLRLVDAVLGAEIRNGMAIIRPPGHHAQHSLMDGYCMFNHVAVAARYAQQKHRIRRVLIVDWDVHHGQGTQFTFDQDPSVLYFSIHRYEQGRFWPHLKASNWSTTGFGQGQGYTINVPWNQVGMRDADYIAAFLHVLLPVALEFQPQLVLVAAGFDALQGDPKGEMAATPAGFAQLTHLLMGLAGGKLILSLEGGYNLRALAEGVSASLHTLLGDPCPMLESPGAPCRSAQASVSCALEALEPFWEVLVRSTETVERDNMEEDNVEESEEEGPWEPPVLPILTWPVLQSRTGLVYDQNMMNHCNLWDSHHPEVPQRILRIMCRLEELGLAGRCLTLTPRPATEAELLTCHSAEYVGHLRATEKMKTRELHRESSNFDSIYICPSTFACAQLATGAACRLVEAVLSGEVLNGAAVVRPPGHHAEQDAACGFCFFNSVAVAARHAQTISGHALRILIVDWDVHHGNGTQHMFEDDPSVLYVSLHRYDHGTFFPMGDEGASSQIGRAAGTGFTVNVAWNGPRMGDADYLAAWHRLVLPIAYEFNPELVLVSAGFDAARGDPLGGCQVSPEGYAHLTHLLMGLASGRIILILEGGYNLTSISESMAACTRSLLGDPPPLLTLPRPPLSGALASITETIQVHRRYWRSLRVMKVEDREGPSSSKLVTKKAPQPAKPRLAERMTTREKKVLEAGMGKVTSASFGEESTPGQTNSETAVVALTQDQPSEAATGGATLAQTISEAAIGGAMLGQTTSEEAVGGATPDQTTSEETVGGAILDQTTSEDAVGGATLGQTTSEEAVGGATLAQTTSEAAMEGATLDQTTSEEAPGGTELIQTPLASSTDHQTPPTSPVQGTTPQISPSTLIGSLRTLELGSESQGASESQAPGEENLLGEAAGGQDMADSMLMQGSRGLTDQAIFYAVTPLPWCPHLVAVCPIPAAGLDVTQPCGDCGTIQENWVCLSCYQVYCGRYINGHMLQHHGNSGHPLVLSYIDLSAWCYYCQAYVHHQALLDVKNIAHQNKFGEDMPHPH
Put plainly: HDAC6 enzyme inhibitory assay (HDAC-Glo I/II Assay kit). The conditions noted are these: wells without enzyme = 100% inhibition; for inhibition at 1 µM: read-out: HDAC6 inhibitory rate (%) (1 μM). In short, it runs like this: as §1

T1 sequence (Q13547 whole entry): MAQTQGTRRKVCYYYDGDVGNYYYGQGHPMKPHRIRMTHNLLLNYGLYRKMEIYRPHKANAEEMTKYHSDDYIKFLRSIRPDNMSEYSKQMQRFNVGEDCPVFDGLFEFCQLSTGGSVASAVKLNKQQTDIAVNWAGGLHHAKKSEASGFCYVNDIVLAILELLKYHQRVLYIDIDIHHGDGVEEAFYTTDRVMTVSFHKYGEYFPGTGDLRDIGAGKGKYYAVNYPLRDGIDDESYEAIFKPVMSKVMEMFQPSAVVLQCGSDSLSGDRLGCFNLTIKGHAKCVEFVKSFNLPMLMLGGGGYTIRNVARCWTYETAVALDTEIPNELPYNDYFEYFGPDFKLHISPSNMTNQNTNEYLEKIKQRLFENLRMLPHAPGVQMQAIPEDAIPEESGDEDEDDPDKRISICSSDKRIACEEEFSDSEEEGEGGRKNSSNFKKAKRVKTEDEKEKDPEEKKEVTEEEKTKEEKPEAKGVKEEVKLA
T2 sequence (Q9UKV0 whole entry, species assumed): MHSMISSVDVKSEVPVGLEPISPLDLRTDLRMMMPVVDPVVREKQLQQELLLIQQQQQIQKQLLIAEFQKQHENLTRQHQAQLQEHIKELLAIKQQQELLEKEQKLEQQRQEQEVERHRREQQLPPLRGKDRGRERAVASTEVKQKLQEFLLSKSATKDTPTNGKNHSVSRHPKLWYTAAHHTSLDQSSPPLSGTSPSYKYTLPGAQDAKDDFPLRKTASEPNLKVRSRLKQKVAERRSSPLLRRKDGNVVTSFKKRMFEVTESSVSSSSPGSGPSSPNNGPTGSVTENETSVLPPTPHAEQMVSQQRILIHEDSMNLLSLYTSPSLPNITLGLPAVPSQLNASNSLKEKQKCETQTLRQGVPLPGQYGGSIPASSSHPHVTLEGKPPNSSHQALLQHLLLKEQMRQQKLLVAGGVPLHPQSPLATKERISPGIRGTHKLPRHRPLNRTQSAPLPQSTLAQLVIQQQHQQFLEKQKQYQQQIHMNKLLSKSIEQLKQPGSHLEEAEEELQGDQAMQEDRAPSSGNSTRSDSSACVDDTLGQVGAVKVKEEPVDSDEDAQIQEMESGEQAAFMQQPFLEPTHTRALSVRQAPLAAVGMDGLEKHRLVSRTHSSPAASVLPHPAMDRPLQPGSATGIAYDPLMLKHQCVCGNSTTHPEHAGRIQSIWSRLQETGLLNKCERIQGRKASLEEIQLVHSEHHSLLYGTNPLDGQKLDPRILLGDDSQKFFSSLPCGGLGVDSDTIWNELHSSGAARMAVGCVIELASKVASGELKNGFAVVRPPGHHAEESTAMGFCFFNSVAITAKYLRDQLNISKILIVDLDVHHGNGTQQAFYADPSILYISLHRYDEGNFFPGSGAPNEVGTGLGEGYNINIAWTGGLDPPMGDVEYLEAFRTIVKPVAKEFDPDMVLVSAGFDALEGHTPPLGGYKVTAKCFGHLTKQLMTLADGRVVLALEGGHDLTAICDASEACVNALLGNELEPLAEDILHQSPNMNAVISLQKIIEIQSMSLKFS

Turning to `COc1ccc(C(=O)NCC2CCCCN2C(=O)Nc2ccc(-c3noc(C(F)(F)F)n3)cc2)cc1` (stereo not drawn) [Example 25, 2-(((4-methoxybenzoyl)amino)methyl)-N-(4-(5-(trifluoromethyl)-1,2,4-oxadiazol-3-yl)phenyl)piperidine-1-carboxamide], the inhibition at 1 µM in assay [1] amounted to 12%; in assay [2] it was 95%; in assay [3], 2%.
For `O=C(NCC1CCCCN1C(=O)Nc1ccc(-c2noc(C(F)(F)F)n2)cc1)Nc1ccccc1` (stereo not drawn) [Example 54, 2-(((phenylcarbamoyl)amino)methyl)-N-(4-(5-(trifluoromethyl)-1,2,4-oxadiazol-3-yl)phenyl)piperidine-1-carboxamide], the inhibition at 1 µM in assay [1] is 17%; in assay [2], 89%; in assay [3], 6%.
For `O=C(NCC1CCCCN1C(=O)Nc1ccc(-c2noc(C(F)(F)F)n2)cc1)C1CCCCC1` (stereo not drawn) [Example 50], the “HDAC1 inhibitory rate (%) (1 μM)” value in assay [1] is 79%. Further, the “HDAC9 inhibitory rate (%) (1 μM)” value in assay [2] amounted to 95%. Besides, the “HDAC6 inhibitory rate (%) (1 μM)” value in assay [3] amounted to 7%.
For the compound `COc1cccc(C(=O)NCC2CCCCN2C(=O)Nc2ccc(-c3noc(C(F)(F)F)n3)cc2)c1` (stereo not drawn) [Example 24, 2-(((3-methoxybenzoyl)amino)methyl)-N-(4-(5-(trifluoromethyl)-1,2,4-oxadiazol-3-yl)phenyl)piperidine-1-carboxamide], the figures for the inhibition at 1 µM in assay [1], in assay [2] and in assay [3] were 24%, 88% and 3%, respectively.
Taken in the same sequence, the figures for `O=C(NCC1CCCCN1C(=O)Nc1ccc(-c2noc(C(F)(F)F)n2)cc1)c1ccccc1` (stereo not drawn) [Example 2, 2-((benzoylamino)methyl)-N-(4-(5-(trifluoromethyl)-1,2,4-oxadiazol-3-yl)phenyl)piperidine-1-carboxamide] were 80%, 90% and 10%.
Taken in the same sequence, the figures for `O=C(NCC1CCCCN1C(=O)Nc1ccc(-c2noc(C(F)(F)F)n2)cc1)c1ccccn1` (stereo not drawn) [Example 34, N-((1-((4-(5-(trifluoromethyl)-1,2,4-oxadiazol-3-yl)phenyl)carbamoyl)piperidin-2-yl)methyl)pyridine-2-carboxamide] were 28%, 84% and 4%.
For the compound `O=C(NCC1CCCCN1C(=O)Nc1ccc(-c2noc(C(F)(F)F)n2)cc1)c1ccnc(O)c1` (stereo not drawn) [Example 58], the “HDAC1 inhibitory rate (%) (1 μM)” value in assay [1] is reported as 25%. Besides, the “HDAC9 inhibitory rate (%) (1 μM)” value in assay [2] was 87%. Besides, the “HDAC6 inhibitory rate (%) (1 μM)” value in assay [3] was 3%.
Taken in the same sequence, the figures for `COc1ccccc1C(=O)NCC1CCCCN1C(=O)Nc1ccc(-c2noc(C(F)(F)F)n2)cc1` (stereo not drawn) [Example 23] were 41%, 86% and 4%.
Turning to `NC(=O)c1ccc(C(=O)NCC2CCCCN2C(=O)Nc2ccc(-c3noc(C(F)(F)F)n3)cc2)cc1` (stereo not drawn) [Example 22, N-((1-((4-(5-(trifluoromethyl)-1,2,4-oxadiazol-3-yl)phenyl)carbamoyl)piperidin-2-yl)methyl)terephthalamide], the inhibition at 1 µM was determined as 6% in assay [1], 90% in assay [2] and 2% in assay [3].
`Cc1cccc(C(=O)NCC2CCCCN2C(=O)Nc2ccc(-c3noc(C(F)(F)F)n3)cc2)n1` (stereo not drawn) [Example 55, 6-methyl-N-((1-((4-(5-(trifluoromethyl)-1,2,4-oxadiazol-3-yl)phenyl)carbamoyl)piperidin-2-yl)methyl)pyridine-2-carboxamide]: the figures for the inhibition at 1 µM in assay [1], in assay [2] and in assay [3] were 31%, 85% and 2%, respectively.
Take `CC(=O)NCC1CCCCN1C(=O)Nc1ccc(-c2noc(C(F)(F)F)n2)cc1` (stereo not drawn) [Example 48, 2-(acetamidomethyl)-N-(4-(5-(trifluoromethyl)-1,2,4-oxadiazol-3-yl)phenyl)piperidine-1-carboxamide]: the figures for the inhibition at 1 µM in assay [1], in assay [2] and in assay [3] were 41%, 88% and 5%, respectively.
`O=C(NCC1CCCCN1C(=O)Nc1ccc(-c2noc(C(F)(F)F)n2)cc1)c1ccc(C(F)(F)F)cc1` (stereo not drawn) [Example 18, 2-(((4-(trifluoromethyl)benzoyl)amino)methyl)-N-(4-(5-(trifluoromethyl)-1,2,4-oxadiazol-3-yl)phenyl)piperidine-1-carboxamide]: the inhibition at 1 µM is -7% in assay [1], 39% in assay [2] and 2% in assay [3].
`O=C(NCC1CCCCN1C(=O)Nc1ccc(-c2noc(C(F)(F)F)n2)cc1)c1ccc(O)cc1` (stereo not drawn) [Example 27, 2-(((4-hydroxybenzoyl)amino)methyl)-N-(4-(5-(trifluoromethyl)-1,2,4-oxadiazol-3-yl)phenyl)piperidine-1-carboxamide]: the inhibition at 1 µM in assay [1] came out at 37%; in assay [2], 93%; in assay [3] it was 3%.
Taken in the same sequence, the figures for `O=C(NCC1CCCCN1C(=O)Nc1ccc(-c2noc(C(F)(F)F)n2)cc1)c1ccncc1` (stereo not drawn) [Example 36, N-((1-((4-(5-(trifluoromethyl)-1,2,4-oxadiazol-3-yl)phenyl)carbamoyl)piperidin-2-yl)methyl)isonicotinamide] were 63%, 97% and 5%.
As to `O=C(NCC1CCCCN1C(=O)Nc1ccc(-c2noc(C(F)(F)F)n2)cc1)c1cccc(-c2ccccc2)c1` (stereo not drawn) [Example 14, 2-(((biphenyl-3-ylcarbonyl)amino)methyl)-N-(4-(5-(trifluoromethyl)-1,2,4-oxadiazol-3-yl)phenyl)piperidine-1-carboxamide], the inhibition at 1 µM in assay [1] is -8%; in assay [2] it was 51%; in assay [3] it was 5%.
As to `O=C(NCC1CCCCN1C(=O)Nc1ccc(-c2noc(C(F)(F)F)n2)cc1)c1cccnc1` (stereo not drawn) [Example 35, N-((1-((4-(5-(trifluoromethyl)-1,2,4-oxadiazol-3-yl)phenyl)carbamoyl)piperidin-2-yl)methyl)nicotinamide], the inhibition at 1 µM in assay [1] was 58%; in assay [2], 96%; in assay [3], 4%.
Taken in the same sequence, the figures for `Cn1nccc1C(=O)NC[C@@H]1COCCN1C(=O)Nc1ccc(-c2noc(C(F)(F)F)n2)cc1` [Example 63, (3R)-3-((((1-methyl-1H-pyrazol-5-yl)carbonyl)amino)methyl)-N-(4-(5-(trifluoromethyl)-1,2,4-oxadiazol-3-yl)phenyl)morpholine-4-carboxamide] were 70%, 99% and 11%.
Taken in the same sequence, the figures for `O=C(NCC1CCCCN1C(=O)Nc1ccc(-c2noc(C(F)(F)F)n2)cc1)c1ccccc1Cl` (stereo not drawn) [Example 7, 2-(((2-chlorobenzoyl)amino)methyl)-N-(4-(5-(trifluoromethyl)-1,2,4-oxadiazol-3-yl)phenyl)piperidine-1-carboxamide] were -3%, 52% and 3%.
For `Cc1ccnc(C(=O)NCC2CCCCN2C(=O)Nc2ccc(-c3noc(C(F)(F)F)n3)cc2)c1` (stereo not drawn) [Example 56, 4-methyl-N-((1-((4-(5-(trifluoromethyl)-1,2,4-oxadiazol-3-yl)phenyl)carbamoyl)piperidin-2-yl)methyl)pyridine-2-carboxamide], the inhibition at 1 µM in assay [1] came to 25%; in assay [2], 83%; in assay [3], 4%.

The values are drawn from patent publication US10406146B2, “Heterocyclic compound” (TAKEDA PHARMACEUTICAL COMPANY LIMITED, priority 2015, dated 2019).
